Measurements as given in patent publication US20220267380A1, “Glycopeptides Increasing Lipid Synthesis” (TFCHEM, priority 2019, published 2022).

Test system: normal human dermal fibroblasts (NHDF)
Assay: Gene expression in NHDF, full transcriptome analysis with Affymetrix U219 microarray
Type: cell-based
Conditions: NHDF
[1] = relative expression adjusted to detection limit (<20), 10 mg/ml, 24 h

CC(=O)N(CCCC[C@H](N)C(=O)O)CC(F)(F)[C@]1(O)O[C@H](CO)[C@H](O)[C@H](O)[C@H]1O [Compound 4]
effect of treatment of NHDF on lipid synthesis (transcriptional): up regulation of lipids synthesis, including fatty acids, cholesterol or ceramides | Fold change, CYP51A1///LRRD1 (10 mg/ml, 24 h, vs control): 2.38 | Fold change, DHCR7 (10 mg/ml, 24 h, vs control): 3.24 | Fold change, HMGCS1 (10 mg/ml, 24 h, vs control): 2.39 | Fold change, HSD17B7 (10 mg/ml, 24 h, vs control): 2.43 | Fold change, MVD (10 mg/ml, 24 h, vs control): 2.77 | Fold change, SC5D (10 mg/ml, 24 h, vs control): 2.06 | Fold change, SREBF1 (10 mg/ml, 24 h, vs control): 3.15 | Fold change, POR (10 mg/ml, 24 h, vs control, Affymetrix probe set 11716114_x_at): 3.68 | Fold change, G6PD (10 mg/ml, 24 h, vs control, Affymetrix probe set 11716292_a_at): 2.53 | Fold change, G6PD (10 mg/ml, 24 h, vs control, Affymetrix probe set 11716293_x_at): 2.48 | Fold change, INSIG1 (10 mg/ml, 24 h, vs control, Affymetrix probe set 11716338_a_at): 2.73 | Fold change, INSIG1 (10 mg/ml, 24 h, vs control, Affymetrix probe set 11716339_a_at): 3.73 | Fold change, NSMAF (10 mg/ml, 24 h, vs control, Affymetrix probe set 11717214_s_at): 2.01 | Fold change, LSS (10 mg/ml, 24 h, vs control, Affymetrix probe set 11717620_a_at): 2.14 | Fold change, ASAH1 (10 mg/ml, 24 h, vs control, Affymetrix probe set 11717722_s_at): 2.54 | Fold change, EBP (10 mg/ml, 24 h, vs control, Affymetrix probe set 11717859_a_at): 2.48 | Fold change, COL4A3BP (10 mg/ml, 24 h, vs control, Affymetrix probe set 11721537_a_at): 2.46 | Fold change, COL4A3BP (10 mg/ml, 24 h, vs control, Affymetrix probe set 11721538_a_at): 2.19 | Fold change, HTRA2 (10 mg/ml, 24 h, vs control, Affymetrix probe set 11726630_a_at): 2.06 | Fold change, LSS (10 mg/ml, 24 h, vs control, Affymetrix probe set 11731324_a_at): 3.13 | Fold change, CLN3 (10 mg/ml, 24 h, vs control, Affymetrix probe set 11731408_x_at): 3.73 | Fold change, NSMAF (10 mg/ml, 24 h, vs control, Affymetrix probe set 11740559_a_at): 2.34 | Fold change, NSMAF (10 mg/ml, 24 h, vs control, Affymetrix probe set 11740560_x_at): 2.19 | Fold change, ASAH1 (10 mg/ml, 24 h, vs control, Affymetrix probe set 11740580_at): 2.44 | Fold change, ASAH1 (10 mg/ml, 24 h, vs control, Affymetrix probe set 11740581_s_at): 2.41 | Fold change, ASAH1 (10 mg/ml, 24 h, vs control, Affymetrix probe set 11740582_a_at): 3.46 | Fold change, ASAH1 (10 mg/ml, 24 h, vs control, Affymetrix probe set 11743547_a_at): 3.97 | Fold change, TM7SF2 (10 mg/ml, 24 h, vs control, Affymetrix probe set 11744179_x_at): 2.10 | Fold change, CLN3 (10 mg/ml, 24 h, vs control, Affymetrix probe set 11744874_x_at): 3.98 | Fold change, POR (10 mg/ml, 24 h, vs control, Affymetrix probe set 11746973_x_at): 3.22 | Fold change, CLN3 (10 mg/ml, 24 h, vs control, Affymetrix probe set 11747203_x_at): 2.97 | Fold change, PPP2R1A (10 mg/ml, 24 h, vs control, Affymetrix probe set 11747739_a_at): 2.33 | Fold change, PPP2R1A (10 mg/ml, 24 h, vs control, Affymetrix probe set 11747740_x_at): 2.66 | Fold change, TM7SF2 (10 mg/ml, 24 h, vs control, Affymetrix probe set 11748279_s_at): 2.46 | Fold change, POR (10 mg/ml, 24 h, vs control, Affymetrix probe set 11748368_x_at): 3.37 | Fold change, CLN3 (10 mg/ml, 24 h, vs control, Affymetrix probe set 11748869_a_at): 3.24 | Fold change, CLN3 (10 mg/ml, 24 h, vs control, Affymetrix probe set 11748870_x_at): 3.33 | Fold change, EBP (10 mg/ml, 24 h, vs control, Affymetrix probe set 11749332_x_at): 2.22 | Fold change, COL4A3BP (10 mg/ml, 24 h, vs control, Affymetrix probe set 11749683_a_at): 2.62 | Fold change, DHCR24 (10 mg/ml, 24 h, vs control, Affymetrix probe set 11751337_a_at): 2.11 | Fold change, DHCR24 (10 mg/ml, 24 h, vs control, Affymetrix probe set 11751338_x_at): 2.31 | Fold change, PLA2G15 (10 mg/ml, 24 h, vs control, Affymetrix probe set 11751383_a_at): 2.52 | Fold change, G6PD (10 mg/ml, 24 h, vs control, Affymetrix probe set 11752486_a_at): 3.12 | Fold change, CLN3 (10 mg/ml, 24 h, vs control, Affymetrix probe set 11753053_x_at): 3.08 | Fold change, PLA2G15 (10 mg/ml, 24 h, vs control, Affymetrix probe set 11755396_a_at): 3.26 | Fold change, CLN3 (10 mg/ml, 24 h, vs control, Affymetrix probe set 11756016_x_at): 2.80 | Fold change, HTRA2 (10 mg/ml, 24 h, vs control, Affymetrix probe set 11756421_x_at): 2.15 | Fold change, POR (10 mg/ml, 24 h, vs control, Affymetrix probe set 11757517_x_at): 2.16 | Fold change, COL4A3BP (10 mg/ml, 24 h, vs control, Affymetrix probe set 11758133_s_at): 2.04 | REadj2, CYP51A1///LRRD1 [1]: 2314.08 | REadj2, DHCR7 [1]: 1204.72 | REadj2, HMGCS1 [1]: 1284.34 | REadj2, HSD17B7 [1]: 166.42 | REadj2, MVD [1]: 530.60 | REadj2, SC5D [1]: 537.03 | REadj2, SREBF1 [1]: 456.21 | REadj2, G6PD (relative expression adjusted to detection limit (<20), 10 mg/ml, 24 h, Affymetrix probe set 11716292_a_at): 438.70 | REadj2, G6PD (relative expression adjusted to detection limit (<20), 10 mg/ml, 24 h, Affymetrix probe set 11716293_x_at): 290.47 | REadj2, INSIG1 (relative expression adjusted to detection limit (<20), 10 mg/ml, 24 h, Affymetrix probe set 11716338_a_at): 1272.02 | REadj2, INSIG1 (relative expression adjusted to detection limit (<20), 10 mg/ml, 24 h, Affymetrix probe set 11716339_a_at): 1678.67 | REadj2, EBP (relative expression adjusted to detection limit (<20), 10 mg/ml, 24 h, Affymetrix probe set 11717859_a_at): 1008.77 | REadj2, HTRA2 (relative expression adjusted to detection limit (<20), 10 mg/ml, 24 h, Affymetrix probe set 11726630_a_at): 252.64 | REadj2, TM7SF2 (relative expression adjusted to detection limit (<20), 10 mg/ml, 24 h, Affymetrix probe set 11744179_x_at): 62.22 | REadj2, TM7SF2 (relative expression adjusted to detection limit (<20), 10 mg/ml, 24 h, Affymetrix probe set 11748279_s_at): 100.08 | REadj2, EBP (relative expression adjusted to detection limit (<20), 10 mg/ml, 24 h, Affymetrix probe set 11749332_x_at): 812.08 | REadj2, DHCR24 (relative expression adjusted to detection limit (<20), 10 mg/ml, 24 h, Affymetrix probe set 11751337_a_at): 176.26 | REadj2, DHCR24 (relative expression adjusted to detection limit (<20), 10 mg/ml, 24 h, Affymetrix probe set 11751338_x_at): 345.60 | REadj2, PLA2G15 (relative expression adjusted to detection limit (<20), 10 mg/ml, 24 h, Affymetrix probe set 11751383_a_at): 103.53 | REadj2, G6PD (relative expression adjusted to detection limit (<20), 10 mg/ml, 24 h, Affymetrix probe set 11752486_a_at): 220.41 | REadj2, PLA2G15 (relative expression adjusted to detection limit (<20), 10 mg/ml, 24 h, Affymetrix probe set 11755396_a_at): 177.48 | REadj2, HTRA2 (relative expression adjusted to detection limit (<20), 10 mg/ml, 24 h, Affymetrix probe set 11756421_x_at): 227.59
